This is an account of results in ChEMBL document CHEMBL1147155, “1,4-Dihydroindeno[1,2-c]pyrazoles with acetylenic side chains as novel and potent multitargeted receptor tyrosine kinase inhibitors with low affinity for the hERG ion channel” (J Med Chem, 2007).

Structures are written as SMILES.

Usually clearance stands for the volume of plasma or blood freed of the substance per unit of time. A lower clearance goes with a low capacity for elimination. Broadly, the half-life is the time in which the quantity being followed falls by half. A low value points to fast loss. As a reminder, the bioavailability is the share of a dose that reaches the circulation, judged against a reference dose that is usually intravenous. For orientation: AUC means concentration integrated over time. A lower AUC goes with less exposure.

What all share (format): ADME, organism-based
Data set [1] is described as follows: Clearance in CD1 mouse at 3 mg/kg, iv. Details: dose 3 mg/kg, route intravenous. Conditions: in vivo.
Data set [2] in a line: Half life in CD1 mouse at 3 mg/kg, iv. Further details: dose 3 mg/kg, route intravenous. The settings on record: in vivo.
The nature of data set [3]: Bioavailability in CD1 mouse at 10 mg/kg, po. Conditions: in vivo.
A short description of data set [4]: AUC in CD1 mouse at 10 mg/kg, po. Details: dose 10 mg/kg, route oral. Conditions: plasma.

`C(#Cc1cc(-c2n[nH]c3c2Cc2cc(Cn4cncn4)ccc2-3)cs1)COc1ccccc1`: the clearance in data set [1] was 41.7 mL/min/kg. This compound also had a half-life in data set [2] of 3 h.
Turning to `CN1CCN(Cc2ccc3c(c2)Cc2c(-c4csc(C#CCNC(=O)c5ccccc5)c4)n[nH]c2-3)CC1`, the bioavailability in data set [3] stood at 17%. Moreover, the exposure (AUC) in data set [4] was found to be 3500 ng·h/mL.
`CN1CCN(Cc2ccc3c(c2)Cc2c-3n[nH]c2-c2csc(C#CCNC(=O)Nc3ccccc3)c2)CC1`: the bioavailability in data set [3] is 0%.
In data set [3], `CN1CCN(Cc2ccc3c(c2)Cc2c-3n[nH]c2-c2csc(C#CCOc3ccccc3)c2)CC1` returned a bioavailability of 75%. Further, the half-life in data set [2] was 5.5 h.
On to `COCCOCC#Cc1cc(-c2n[nH]c3c2Cc2cc(Cn4cncn4)ccc2-3)cs1`, for which the bioavailability in data set [3] stood at 22%. This compound also showed a clearance in data set [1] of 56.7 mL/min/kg. The compound also had a half-life in data set [2] of 0.3 h.
